# Source: patent publication US11912790B2, “Peptide compounds and therapeutic uses of same” (Immunity Pharma Ltd., priority 2018, dated 2024)
# “Also recorded” adds a separate entry of the source. No end group written: not given here.
# How the values were obtained:
# BALB/c mice [1] = assay: Dexamethasone-induced spleen and thymus weight and cell count loss in mice, Example 1 (FIG. 1); format: in vivo, mouse; settings: 100 μg Dexamethasone IP; for reduction of cell count loss (spleen and thymus) / reduction of the amount of dexamethasone-induced spleen and/or thymus weight loss: BALB/c mice, peptide IV 250 or 400 μg/mouse immediately and 24 h after, sacrifice at 48 h, no difference between the 2 doses
# Method: The peptides described herein are capable of reducing the amount of dexamethasone-induced spleen and/or thymus weight loss in a mouse—e.g. following injection (IP) with 100 μg of Dexamethasone.
# Dexamethasone is a corticosteroid medication that induces apoptosis of immune cells and lymphomyeloid tissues. BALB/c mice were used to examine the ability of candidate peptides to rescue lymphocyte cells from apoptosis. Mice were injected IP with 100 μg of Dexamethasone. Dexamethasone-treated mice received immediately following and 24-hours after dexamethasone treatment IV injection of candidate peptides (250 or 400 μg peptide/mouse). Mice were sacrificed 48 hours after the first treatment. The spleen and the thymus were weighted and full cell count of both organs was performed.
# BALB/c mice [2] = assay: Dexamethasone-induced spleen and thymus weight and cell count loss in mice, Example 2 (FIG. 2); format: in vivo; settings: 100 μg Dexamethasone IP, peptide IV 200 μg/mouse immediately and 24 h after, sacrifice at 48 h
# Method: BALB/c mice were used to examine the ability of candidate peptides to rescue lymphocyte cells from apoptosis. Mice were injected IP with 100 μg of Dexamethasone. Dexamethasone-treated mice received immediately following and 24-hours after dexamethasone treatment IV injection of candidate peptides (200 μg peptide/mouse). Mice were sacrificed 48 hours after the first treatment. The spleen and the thymus were weighted and full cell count of both organs was performed.
compound,measurement,setting,value
"C[C@@H]1C[C@H]2[C@@H]3CCC4=CC(=O)C=C[C@]4(C)[C@@]3(F)[C@@H](O)C[C@]2(C)[C@@]1(O)C(=O)CO [Dexamethasone, reference compound]",spleen and thymus weight loss and reduction in spleen cell count induced by dexamethasone,"BALB/c mice [1]; 48 h, compared to normal mice",about 50%
same,thymus cell count reduction induced by dexamethasone,"BALB/c mice [1]; 48 h, compared to normal mice",~80%
LPPLAYP [SEQ ID NO: 4],reduction of cell count loss (spleen and thymus),BALB/c mice [1],significant effect
same,reduction of the amount of dexamethasone-induced spleen and/or thymus weight loss,BALB/c mice [1],significant effect; also recorded: significantly reduced
PPLAYP [SEQ ID NO: 18],reduction of the amount of dexamethasone-induced spleen and/or thymus weight loss,BALB/c mice [2],significant improvement
PPLPY (not fully specified (C-terminus)) [SEQ ID NO: 3],reduction of cell count loss (spleen and thymus),BALB/c mice [1],significant effect
same,reduction of the amount of dexamethasone-induced spleen and/or thymus weight loss,BALB/c mice [1],significant effect; also recorded: significantly reduced
